Measurements published in US12491145B2, “Synthesis and purification of cannabigerol and its application” (SYMRISE AG, priority 2019, dated 2025).

What was measured:
[1] = system: B16 melanoma cells; test: Determination of melanin content in B16 cells; assay type: cell-based, mouse
Procedure: (§1) Cell Culture. The cell line B16 (mouse melanocytes, obtained from ATCC and part of SimDerma platform) was maintained in supplemented DMEM medium containing 10% FBS and 1% antibiotics penicillin/streptomycin (DMEM complete medium) at 37° C. in a humidified atmosphere of 5% CO2.
(§2) Determination of Melanin Content and Cytotoxicity in B16 cells: To analyse the effect of cannabigerol (1) on melanogenesis, B16 melanoma cells were used as a cellular assay system to evaluate the depigmenting activity in cell cultures. B16 cells (4A5) were treated for 3 days with several doses of the compounds (cannabigerol (1) or kojic acid). The cells were washed with phosphate buffer saline (PBS) at the end of the treatment and dissolved in 1 N NaOH containing 10% DMSO for 1 h at 60° C. The absorbance at 405/490 nm was measured (TriStar LB 941 Berthold Technologies, GmbH & Co. KG) and the melanin content quantified with a reference standard of synthetic melanin (Sigma-Aldrich, St Louis, Mo., USA). Cytotoxicity was measured in parallel by the MTT assay to discard that melanin inhibition is not masked by cytotoxicity. Kojic acid was used as a positive control.

[2] = target: T1, tyrosinase (Mus musculus, UniProt P11344); test: Measurement of tyrosinase activity in lysates of treated B16 cells (L-dopa, dopachrome formation, 475 nm); assay type: cell-based
T1 construct: host or cells: B16 mouse melanocytes (melanoma line)
T1 sequence (P11344 19-533): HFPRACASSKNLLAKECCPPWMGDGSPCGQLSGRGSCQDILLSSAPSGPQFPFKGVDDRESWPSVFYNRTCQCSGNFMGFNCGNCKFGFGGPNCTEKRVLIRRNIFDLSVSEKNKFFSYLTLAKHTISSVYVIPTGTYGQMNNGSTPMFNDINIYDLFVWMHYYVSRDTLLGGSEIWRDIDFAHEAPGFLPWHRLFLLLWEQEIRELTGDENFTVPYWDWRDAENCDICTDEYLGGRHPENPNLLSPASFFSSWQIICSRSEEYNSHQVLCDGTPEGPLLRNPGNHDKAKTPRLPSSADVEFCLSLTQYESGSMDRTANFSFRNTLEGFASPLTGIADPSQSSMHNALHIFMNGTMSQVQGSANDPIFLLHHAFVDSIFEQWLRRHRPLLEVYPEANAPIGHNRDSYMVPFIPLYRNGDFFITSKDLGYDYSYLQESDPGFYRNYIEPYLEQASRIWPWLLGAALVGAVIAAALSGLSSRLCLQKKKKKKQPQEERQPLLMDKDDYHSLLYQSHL
Procedure: as §1
Measurements of Tyrosinase Activity: To measure the tyrosinase activity of the cells, B16 cells were treated for 3 days with several doses of the compounds (cannabigerol (1) or kojic acid), then lysed by incubation at 4° C. for 30 min in lysis buffer (20 mM sodium phosphate, pH 6.8, 1% Triton X-100, 1 mM PMSF, 1 mM EDTA) containing protease inhibitors cocktail. The lysates were centrifuged at 15.000 g for 10 min to obtain the supernatant as the source of tyrosinase. The reaction mixture contained 20 mM phosphate buffer, pH 6.8, 1.25 mM L-dopa (Sigma-Aldrich). After incubation at 37° C. for 30 min, dopachrome formation was monitored by measuring absorbance at a wavelength of 475 nm in a microplate reader (TriStar LB 941 Berthold Technologies, GmbH & Co. KG). Kojic acid was used as a positive control.

[3] = system: B16 cells; assay type: cell-based, mouse
Procedure: as §2

| SMILES | reduction of melanin production ([1]; 2 mM, B16 cells, 3 days) | inhibition of tyrosinase compared with positive control ([2]; 1 μg/ml cannabigerol vs 2 mM kojic acid, B16 cells, 3 days) | doses at which tyrosinase activity was inhibited ([2]; B16 cells treated for 3 days) | inhibition compared with reference inhibitor in the used test systems (tyrosinase activity, melanin production; FIG. 2 and 3) ([2]; B16 melanocytes) | melanin production, dose dependence [1] | inhibition at 1 µg/mL ([1]; Mus musculus, B16, 72 h, read-out: inhibition of melanin production) | cytotoxic effects [3] |
| --- | --- | --- | --- | --- | --- | --- | --- |
| O=c1cc(CO)occ1O [kojic acid, reference compound] | approx. 20% | – | – | – | – | – | – |
| CCCCCc1cc(O)c(C/C=C(\C)CCC=C(C)C)c(O)c1 [Cannabigerol (1), Cannabigerol] | – | as potent as the effect of 2 mM of kojic acid | ≥ 0.5 µg/mL | stronger inhibition than the used reference inhibitor kojic acid | dose dependently prevented | ~30% | no cytotoxic effects |
